In ChEMBL document CHEMBL1201862, “PubChem BioAssay data set” (2004):
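48-hour exposure; five concentrations; linearly interpolated endpoints. At the GI50, growth is halved.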 The source made the active and inactive calls. No stated cut-off is given here; in the data, active = GI50 up to about 1.1 µM and inactive = higher.

Legend:
Assay in all cases: growth of human tumour cells (NCI), 48 h
A549 = test system: A549
UO-31 = test system: UO-31
OVCAR-3 = test system: OVCAR-3
HCT-15 = test system: HCT-15
SF-539 = test system: SF-539
SK-MEL-2 = test system: SK-MEL-2
SW-620 = test system: SW-620
OVCAR-8 = test system: OVCAR-8
TK-10 = test system: TK-10
NCI-H226 = test system: NCI-H226
ACHN = test system: ACHN
SK-OV-3 = test system: SK-OV-3
OVCAR-5 = test system: OVCAR-5
SNB-19 = test system: SNB-19
UACC-257 = test system: UACC-257
NCI-H522 = test system: NCI-H522
HT-29 = test system: HT-29
UACC-62 = test system: UACC-62
K562 = test system: K562
DLD-1 = test system: DLD-1
HL-60 = test system: HL-60
A498 = test system: A498
IGROV-1 = test system: IGROV-1
786-0 = test system: 786-0
NCI-H460 = test system: NCI-H460
XF498 = test system: XF498
M19-MEL = test system: M19-MEL
CAKI-1 = test system: CAKI-1
M14 = test system: M14
U-251 = test system: U-251
SK-MEL-5 = test system: SK-MEL-5
EKVX = test system: EKVX
MOLT-4 = test system: MOLT-4
LOX IMVI = test system: LOX IMVI
HCT-116 = test system: HCT-116
HOP-92 = test system: HOP-92
Malme-3M = test system: Malme-3M
HCC 2998 = test system: HCC 2998
KM-20L2 = test system: KM-20L2
CCRF-CEM = test system: CCRF-CEM
SF-268 = test system: SF-268
SF-295 = test system: SF-295
RPMI-8226 = test system: RPMI-8226
HOP-18 = test system: HOP-18
KM12 = test system: KM12
HOP-62 = test system: HOP-62
COLO 205 = test system: COLO 205
DMS-273 = test system: DMS-273
NCI-H23 = test system: NCI-H23
SNB-78 = test system: SNB-78
LXFL 529 = test system: LXFL 529
SN12C = test system: SN12C
DMS-114 = test system: DMS-114
SK-MEL-28 = test system: SK-MEL-28
SR = test system: SR
RXF 393 = test system: RXF 393
SNB-75 = test system: SNB-75
OVCAR-4 = test system: OVCAR-4

COc1ccc2c(c1)CC[C@@H]1C2CC[C@]2(C)C(=O)NC(=O)CC12 (some centres not stated)
GI50 (A549): > 100 µM (inactive) | GI50 (UO-31): 97.7 µM (inactive) | GI50 (OVCAR-3): > 100 µM (inactive) | GI50 (HCT-15): > 100 µM | GI50 (SF-539): > 100 µM (inactive) | GI50 (SK-MEL-2): > 100 µM (inactive) | GI50 (SW-620): > 100 µM (inactive) | GI50 (OVCAR-8): > 100 µM (inactive) | GI50 (TK-10): > 100 µM (inactive) | GI50 (NCI-H226): 67.5 µM (inactive) | GI50 (ACHN): > 100 µM (inactive) | GI50 (SK-OV-3): > 100 µM (inactive) | GI50 (OVCAR-5): > 100 µM (inactive) | GI50 (SNB-19): > 100 µM (inactive) | GI50 (UACC-257): > 100 µM (inactive) | GI50 (NCI-H522): > 100 µM (inactive) | GI50 (HT-29): 56.2 µM (inactive) | GI50 (UACC-62): > 100 µM (inactive) | GI50 (K562): 25.2 µM (inactive) | GI50 (DLD-1): > 100 µM (inactive) | GI50 (HL-60): 43.6 µM (inactive) | GI50 (A498): > 100 µM (inactive) | GI50 (IGROV-1): > 100 µM (inactive) | GI50 (786-0): > 100 µM (inactive) | GI50 (NCI-H460): > 100 µM (inactive) | GI50 (XF498): > 100 µM (inactive) | GI50 (M19-MEL): > 100 µM (inactive) | GI50 (CAKI-1): > 100 µM (inactive) | GI50 (M14): > 100 µM (inactive) | GI50 (U-251): > 100 µM (inactive) | GI50 (SK-MEL-5): 78.3 µM (inactive) | GI50 (EKVX): 84.1 µM (inactive) | GI50 (MOLT-4): 61.8 µM (inactive) | GI50 (LOX IMVI): > 100 µM (inactive) | GI50 (HCT-116): > 100 µM (inactive) | GI50 (HOP-92): > 100 µM (inactive) | GI50 (Malme-3M): > 100 µM (inactive) | GI50 (HCC 2998): 53.3 µM (inactive) | GI50 (KM-20L2): > 100 µM (inactive) | GI50 (CCRF-CEM): 88.3 µM (inactive) | GI50 (SF-268): > 100 µM (inactive) | GI50 (SF-295): > 100 µM (inactive) | GI50 (RPMI-8226): > 100 µM (inactive) | GI50 (HOP-18): 26 µM (inactive) | GI50 (KM12): > 100 µM (inactive) | GI50 (HOP-62): > 100 µM (inactive) | GI50 (COLO 205): > 100 µM (inactive) | GI50 (DMS-273): 65.8 µM (inactive) | GI50 (NCI-H23): > 100 µM (inactive) | GI50 (SNB-78): > 100 µM (inactive) | GI50 (LXFL 529): 59.3 µM (inactive) | GI50 (SN12C): > 100 µM (inactive)

CC12C=C[C@]3(CC[C@@H]4[C@@](C)(CO)CCC[C@]4(C)C3CC1)C2 (some centres not stated)
GI50 (DMS-114): 15.5 µM (inactive) | GI50 (SK-MEL-28): 19.2 µM (inactive) | GI50 (A549): 18.2 µM (inactive) | GI50 (UO-31): 17.8 µM (inactive) | GI50 (OVCAR-3): 18.2 µM (inactive) | GI50 (HCT-15): 17 µM | GI50 (SF-539): 16.4 µM (inactive) | GI50 (SK-MEL-2): 17.3 µM (inactive) | GI50 (SW-620): 17.6 µM (inactive) | GI50 (OVCAR-8): 21.4 µM (inactive) | GI50 (SR): 16 µM (inactive) | GI50 (TK-10): 20.1 µM (inactive) | GI50 (ACHN): 18.1 µM (inactive) | GI50 (SK-OV-3): 18.7 µM (inactive) | GI50 (OVCAR-5): 6.01 µM (inactive) | GI50 (SNB-19): 19.6 µM (inactive) | GI50 (UACC-257): 18.5 µM (inactive) | GI50 (NCI-H522): 11.5 µM (inactive) | GI50 (HT-29): 17.8 µM (inactive) | GI50 (UACC-62): 15.8 µM (inactive) | GI50 (K562): 17.5 µM (inactive) | GI50 (DLD-1): > 10 µM (inactive) | GI50 (RXF 393): 13.7 µM (inactive) | GI50 (HL-60): 17.9 µM (inactive) | GI50 (A498): 22.9 µM (inactive) | GI50 (IGROV-1): 17.5 µM (inactive) | GI50 (786-0): 16 µM (inactive) | GI50 (NCI-H460): 21 µM (inactive) | GI50 (XF498): 19.6 µM (inactive) | GI50 (M19-MEL): 19.2 µM (inactive) | GI50 (CAKI-1): 12.8 µM (inactive) | GI50 (M14): 15.7 µM (inactive) | GI50 (U-251): 16.6 µM (inactive) | GI50 (SNB-75): > 10 µM (inactive) | GI50 (EKVX): 24.8 µM (inactive) | GI50 (MOLT-4): 23.6 µM (inactive) | GI50 (LOX IMVI): 15.6 µM (inactive) | GI50 (HCT-116): 17.9 µM (inactive) | GI50 (HOP-92): > 47.3 µM (inactive) | GI50 (Malme-3M): 20.5 µM (inactive) | GI50 (HCC 2998): > 10 µM (inactive) | GI50 (KM-20L2): 0.382 µM (active) | GI50 (CCRF-CEM): 19.9 µM (inactive) | GI50 (SF-268): 17.9 µM (inactive) | GI50 (SF-295): 19.5 µM (inactive) | GI50 (RPMI-8226): 17.9 µM (inactive) | GI50 (KM12): > 44.9 µM (inactive) | GI50 (HOP-62): 14.6 µM (inactive) | GI50 (COLO 205): 16.4 µM (inactive) | GI50 (DMS-273): 16.1 µM (inactive) | GI50 (NCI-H23): 18 µM (inactive) | GI50 (SNB-78): 18.6 µM (inactive) | GI50 (LXFL 529): 16.9 µM (inactive) | GI50 (OVCAR-4): 13.6 µM (inactive) | GI50 (SN12C): 18.2 µM (inactive)
